Source: ChEMBL document CHEMBL6114992, “Design, synthesis, biological evaluation, and mechanism of action of new pyrazines as anticancer agents in vitro and in vivo” (Bioorg Med Chem, 2025)
Activity calls are given as the source filed them. No cut-off for these calls is given here.

How the values were obtained:
SK-OV-3 [1] = assay: Antitumor activity against human SK-OV-3 cells xenografted in nude mouse assessed as reduction cell proliferation at 30 to 60 mg/kg, ip qd treated for 14 days by Ki67 staining based IHC analysis; type: functional, organism-based; details: dose 30-60 mg/kg, time 14.0 day
U-937 [2] = assay: Induction of apoptosis in human U-937 cells assessed as late apoptotic cells at 0.5 uM incubated for 48 hrs by Annexin V-FITC/PI staining based flow cytometry (reference value: 1.96 %); type: functional
[3] = molecular target: Signal transducer and activator of transcription 3 (Homo sapiens) (UniProt P40763); assay: Inhibition of STAT3 phosphorylation in human SK-OV-3 cells at 1 to 5 uM incubated for 48 hrs by Western blot analysis; type: cell-based; details: dose 1-5 µM
Sequence of Signal transducer and activator of transcription 3 (Homo sapiens) (P40763 whole entry): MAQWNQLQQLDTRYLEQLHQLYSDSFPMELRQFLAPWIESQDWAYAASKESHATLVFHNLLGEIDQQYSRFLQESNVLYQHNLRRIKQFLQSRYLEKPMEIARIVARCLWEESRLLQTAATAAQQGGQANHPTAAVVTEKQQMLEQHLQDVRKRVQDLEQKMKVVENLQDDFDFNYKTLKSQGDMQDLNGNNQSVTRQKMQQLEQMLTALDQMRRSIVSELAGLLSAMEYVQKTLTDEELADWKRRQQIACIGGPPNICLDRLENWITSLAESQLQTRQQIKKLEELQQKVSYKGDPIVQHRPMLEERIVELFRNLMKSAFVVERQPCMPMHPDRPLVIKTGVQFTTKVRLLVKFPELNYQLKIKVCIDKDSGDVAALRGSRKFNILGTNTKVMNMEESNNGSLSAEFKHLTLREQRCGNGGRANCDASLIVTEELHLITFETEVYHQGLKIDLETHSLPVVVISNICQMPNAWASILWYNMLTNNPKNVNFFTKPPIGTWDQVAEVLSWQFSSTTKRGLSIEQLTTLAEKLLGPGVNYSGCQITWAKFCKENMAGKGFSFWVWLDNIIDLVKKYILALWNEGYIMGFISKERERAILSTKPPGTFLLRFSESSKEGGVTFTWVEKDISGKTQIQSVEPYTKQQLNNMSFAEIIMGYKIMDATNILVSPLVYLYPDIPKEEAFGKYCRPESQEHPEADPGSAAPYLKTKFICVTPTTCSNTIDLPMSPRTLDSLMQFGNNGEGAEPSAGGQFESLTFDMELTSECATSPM

[4] = Toxicity in nude mouse xenografted with human SK-OV-3 cells assessed as histopathological change in liver at 30 to 60 mg/kg, ip qd treated for 14 days by H and E staining based analysis; type: organism-based; details: in vivo, 336 h, dose 30-60 mg/kg, time 14 day
U-937 [5] = assay: Induction of apoptosis in human U-937 cells assessed as viable cells at 0.5 uM incubated for 48 hrs by Annexin V-FITC/PI staining based flow cytometry (reference value: 93.30 %); type: functional; details: read-out: Activity
U-937 [6] = assay: Induction of apoptosis in human U-937 cells assessed as change in mitochondrial membrane potential at 5 uM incubated for 48 hrs by JC-1 staining based flow cytometry (reference value: 2.20 %); type: functional
[7] = Toxicity in nude mouse xenografted with human SK-OV-3 cells assessed as histopathological change in heart at 30 to 60 mg/kg, ip qd treated for 14 days by H and E staining based analysis; type: organism-based; details: in vivo, 336 h, dose 30-60 mg/kg, time 14 day
U-937 [8] = assay: Induction of apoptosis in human U-937 cells assessed as change in mitochondrial membrane potential at 1 uM incubated for 48 hrs by JC-1 staining based flow cytometry (reference value: 2.20 %); type: functional
THP-1 [9] = assay: Induction of apoptosis in human THP-1 cells assessed as change in mitochondrial membrane potential at 1 uM incubated for 48 hrs by JC-1 staining based flow cytometry (reference value: 5.15 %); type: functional
SK-OV-3 [10] = assay: Induction of apoptosis in human SK-OV-3 cells assessed as early apoptotic cells at 1 uM incubated for 48 hrs by Annexin V-FITC/PI staining based flow cytometry (reference value: 0.08 %); type: functional
[11] = molecular target: Signal transducer and activator of transcription 3 (Homo sapiens) (UniProt P40763); assay: Inhibition of STAT3 phosphorylation in human U-937 cells at 0.5 to 2.5 uM incubated for 48 hrs by Western blot analysis; type: cell-based; details: dose 0.5-2.5 µM
U-937 [12] = assay: Induction of apoptosis in human U-937 cells assessed as necrotic cells at 2.5 uM incubated for 48 hrs by Annexin V-FITC/PI staining based flow cytometry (reference value: 2.03 %); type: functional
U-937 [13] = assay: Induction of apoptosis in human U-937 cells assessed as viable cells at 2.5 uM incubated for 48 hrs by Annexin V-FITC/PI staining based flow cytometry (reference value: 93.30 %); type: functional; details: read-out: Activity
[14] = Toxicity in nude mouse xenografted with human SK-OV-3 cells assessed as histopathological change in lungs at 30 to 60 mg/kg, ip qd treated for 14 days by H and E staining based analysis; type: organism-based; details: in vivo, 336 h, dose 30-60 mg/kg, time 14 day
U-937 [15] = assay: Induction of apoptosis in human U-937 cells assessed as late apoptotic cells at 2.5 uM incubated for 48 hrs by Annexin V-FITC/PI staining based flow cytometry (reference value: 1.96 %); type: functional
U-937 [16] = assay: Upregulation of p21 expression in human U-937 cells incubated for 48 hrs by Western blot analysis; type: functional, cell-based
[17] = Toxicity in nude mouse xenografted with human SK-OV-3 cells assessed as histopathological change in spleen at 30 to 60 mg/kg, ip qd treated for 14 days by H and E staining based analysis; type: organism-based; details: in vivo, 336 h, dose 30-60 mg/kg, time 14 day
U-937 [18] = assay: Induction of apoptosis in human U-937 cells assessed as late apoptotic cells at 1 uM incubated for 48 hrs by Annexin V-FITC/PI staining based flow cytometry (reference value: 1.96 %); type: functional
U-937 [19] = assay: Induction of apoptosis in human U-937 cells assessed as necrotic cells at 1 uM incubated for 48 hrs by Annexin V-FITC/PI staining based flow cytometry (reference value: 2.03 %); type: functional
U-937 [20] = assay: Induction of apoptosis in human U-937 cells assessed as early apoptotic cells at 2.5 uM incubated for 48 hrs by Annexin V-FITC/PI staining based flow cytometry (reference value: 2.72 %); type: functional
THP-1 [21] = assay: Downregulation of Bcl-2 expression in human THP-1 cells incubated for 48 hrs by Western blot analysis; type: functional, cell-based; details: dose 0.5-2.5 µM
U-937 [22] = assay: Induction of apoptosis in human U-937 cells assessed as early apoptotic cells at 1 uM incubated for 48 hrs by Annexin V-FITC/PI staining based flow cytometry (reference value: 2.72 %); type: functional
THP-1 [23] = assay: Downregulation of TAZ expression in human THP-1 cells incubated for 48 hrs by Western blot analysis; type: functional, cell-based; details: dose 0.5-2.5 µM
SK-OV-3 [24] = assay: Induction of apoptosis in human SK-OV-3 cells assessed as late apoptotic cells at 2.5 uM incubated for 48 hrs by Annexin V-FITC/PI staining based flow cytometry (reference value: 4.51 %); type: functional
SK-OV-3 [25] = assay: Induction of apoptosis in human SK-OV-3 cells assessed as change in mitochondrial membrane potential at 5 uM incubated for 48 hrs by JC-1 staining based flow cytometry (reference value: 5.34 %); type: functional
U-937 [26] = assay: Induction of apoptosis in human U-937 cells assessed as change in mitochondrial membrane potential at 2.5 uM incubated for 48 hrs by JC-1 staining based flow cytometry (reference value: 2.20 %); type: functional
U-937 [27] = assay: Induction of apoptosis in human U-937 cells assessed as viable cells at 1 uM incubated for 48 hrs by Annexin V-FITC/PI staining based flow cytometry (reference value: 93.30 %); type: functional; details: read-out: Activity
[28] = Toxicity in nude mouse xenografted with human SK-OV-3 cells assessed as body weight change at 30 to 60 mg/kg, ip qd treated for 14 days; type: organism-based; details: in vivo, 336 h, dose 30-60 mg/kg, time 14 day
[29] = molecular target: Signal transducer and activator of transcription 3 (Homo sapiens) (UniProt P40763); assay: Inhibition of STAT3 phosphorylation in human SK-OV-3 cells at 0.5 to 2.5 uM incubated for 48 hrs by Western blot analysis; type: cell-based; details: dose 0.5-2.5 µM
KG-1 [30] = assay: Downregulation of c-Myc expression in human KG-1 cells incubated for 48 hrs by Western blot analysis; type: functional, cell-based; details: dose 0.5-2.5 µM
KG-1 [31] = assay: Downregulation of YAP1 expression in human KG-1 cells incubated for 48 hrs by Western blot analysis; type: functional, cell-based; details: dose 0.5-2.5 µM
THP-1 [32] = assay: Downregulation of Bcl-XL expression in human THP-1 cells incubated for 48 hrs by Western blot analysis; type: functional, cell-based; details: dose 0.5-2.5 µM
THP-1 [33] = assay: Downregulation of c-Myc expression in human THP-1 cells incubated for 48 hrs by Western blot analysis; type: functional, cell-based; details: dose 0.5-2.5 µM
SK-OV-3 [34] = assay: Downregulation of TAZ expression in human SK-OV-3 cells incubated for 48 hrs by Western blot analysis; type: functional, cell-based; details: dose 0.5-2.5 µM
KG-1 [35] = assay: Upregulation of p21 expression in human KG-1 cells incubated for 48 hrs by Western blot analysis; type: functional, cell-based; details: dose 0.5-2.5 µM
SK-OV-3 [36] = assay: Downregulation of c-Myc expression in human SK-OV-3 cells incubated for 48 hrs by Western blot analysis; type: functional, cell-based; details: dose 0.5-2.5 µM
KG-1 [37] = assay: Upregulation of Bax expression in human KG-1 cells incubated for 48 hrs by Western blot analysis; type: functional, cell-based; details: dose 0.5-2.5 µM

Which results are given for Cc1nccnc1C(=O)/C=C/c1cccc(C#N)c1?
Activity (SK-OV-3 [1]): Active; Activity (U-937 [2]): 6.79%; inhibition [3]: Active; Activity [4]: Non-toxic; viability at 0.5 µM (U-937 [5]): 80.9%; Activity (U-937 [6]): 21.63%; Activity [7]: Non-toxic; Activity (U-937 [8]): 3.68%; Activity (THP-1 [9]): 7.94%; Activity (SK-OV-3 [10]): 1.09%; inhibition [11]: Active; Activity (U-937 [12]): 3.09%; viability at 2.5 µM (U-937 [13]): 75.5%; Activity [14]: Non-toxic; Activity (U-937 [15]): 9.73%; Activity (U-937 [16]): Dose-dependent-effect; Activity [17]: Non-toxic; Activity (U-937 [18]): 9.69%; Activity (U-937 [19]): 3.14%; Activity (U-937 [20]): 11.68%; Activity (THP-1 [21]): Dose-dependent-effect; Activity (U-937 [22]): 10.98%; Activity (THP-1 [23]): Dose-dependent-effect; Activity (SK-OV-3 [24]): 26.65%; Activity (SK-OV-3 [25]): 53.8%; Activity (U-937 [26]): 4.53%; viability at 1 µM (U-937 [27]): 76.2%; Activity [28]: Non-toxic

For CCc1nccnc1C(=O)/C=C/c1ccccn1, which inhibition [29] is on record?
The inhibition was “Active”.

What about the Activity (KG-1 [30]) of the same molecule?
Its Activity is “Dose-dependent-effect”.

What about the Activity (THP-1 [9]) of the same molecule?
Its Activity is 9.01%.

And the Activity (SK-OV-3 [10])?
The Activity was 0.37%.

And the Activity (KG-1 [31])?
Its Activity is “Dose-dependent-effect”.

And the Activity (THP-1 [32])?
Its Activity is “Dose-dependent-effect”.

And the Activity (THP-1 [33])?
The Activity was “Dose-dependent-effect”.

And the Activity (SK-OV-3 [34])?
The Activity was “Dose-dependent-effect”.

And the Activity (KG-1 [35])?
Its Activity is “Dose-dependent-effect”.

What about the Activity (SK-OV-3 [24]) of the same molecule?
The Activity was 23.46%.

And the Activity (SK-OV-3 [36])?
Its Activity is “Dose-dependent-effect”.

And the Activity (SK-OV-3 [25])?
Its Activity is 31.28%.

And the Activity (KG-1 [37])?
The Activity was “Dose-dependent-effect”.
